Results as given in ChEMBL document CHEMBL1201862, “PubChem BioAssay data set” (2004).
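Step 1: Grow cells in 96-well plates. Step 2: Expose to compound for 48 hours at 5 concentrations. Step 3: Interpolate endpoints linearly; if unreached, use highest concentration. Here, GI50 denotes the concentration required for 50% inhibition of growth.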 Active and inactive are the calls of the source. Cut-off read from the data, not from the text of the source: active = GI50 up to about 1.1 µM and inactive = higher.

Columns and labels:
Test in all cases: inhibition of tumour cell growth, NCI panel, 48 h
[1] = test system: K562
[2] = test system: CAKI-1
[3] = test system: HCT-116
[4] = test system: SF-539
[5] = test system: SN12C
[6] = test system: SW-620
[7] = test system: SK-MEL-5
[8] = test system: KM-20L2
[9] = test system: HCC 2998
[10] = test system: SR
[11] = test system: SF-295
[12] = test system: UACC-257
[13] = test system: HCT-15
[14] = test system: A498
[15] = test system: HL-60
[16] = test system: SK-OV-3
[17] = test system: OVCAR-5
[18] = test system: UO-31
[19] = test system: Malme-3M
[20] = test system: NCI-H23
[21] = test system: U-251
[22] = test system: IGROV-1
[23] = test system: A549
[24] = test system: SF-268
[25] = test system: TK-10
[26] = test system: DMS-273
[27] = test system: OVCAR-8
[28] = test system: NCI-H226
[29] = test system: HOP-18
[30] = test system: ACHN
[31] = test system: HOP-62
[32] = test system: 786-0
[33] = test system: RXF 631
[34] = test system: XF498
[35] = test system: M14
[36] = test system: EKVX
[37] = test system: HT-29
[38] = test system: OVCAR-3
[39] = test system: NCI-H460
[40] = test system: SK-MEL-28
[41] = test system: SNB-75
[42] = test system: MOLT-4
[43] = test system: LXFL 529
[44] = test system: LOX IMVI
[45] = test system: HOP-92
[46] = test system: CCRF-CEM
[47] = test system: NCI-H522
[48] = test system: SK-MEL-2
[49] = test system: COLO 205
[50] = test system: RXF 393
[51] = test system: OVCAR-4
[52] = test system: UACC-62
[53] = test system: RPMI-8226
[54] = test system: DMS-114
[55] = test system: KM12
[56] = test system: DLD-1
[57] = test system: SNB-19
[58] = test system: SNB-78

Measured: GI50

N#CC12C3C4CC5C6C4C1C6C(O)(C53)N2Cc1ccccc1 (centres undefined)
inactive: [1] > 100 µM | [2] > 100 µM | [3] > 100 µM | [4] > 100 µM | [5] > 100 µM | [6] > 100 µM | [7] > 100 µM | [8] > 100 µM | [9] > 100 µM | [10] > 100 µM | [11] > 100 µM | [12] > 100 µM | [14] > 100 µM | [15] > 100 µM | [16] > 100 µM | [17] > 100 µM | [18] > 100 µM | [19] > 100 µM | [20] > 100 µM | [21] > 100 µM | [22] > 100 µM | [23] > 100 µM | [24] > 100 µM | [25] > 100 µM | [26] > 100 µM | [27] > 100 µM | [28] > 100 µM | [29] > 100 µM | [30] > 100 µM | [31] > 100 µM | [32] > 100 µM | [33] > 100 µM | [34] > 100 µM | [35] > 100 µM | [36] > 100 µM | [37] > 100 µM | [38] > 100 µM | [39] > 100 µM | [40] > 100 µM | [41] > 100 µM | [42] > 100 µM | [43] > 100 µM | [44] > 100 µM | [45] > 100 µM | [46] > 100 µM | [47] > 100 µM | [48] > 100 µM | [49] > 100 µM | [50] > 100 µM | [51] > 100 µM | [52] > 100 µM | [53] > 100 µM | [54] > 100 µM | [55] > 100 µM | [56] > 100 µM | [57] > 100 µM
> 100 µM: [13]

COc1cc2c(c(OC)c1OC)-c1ccc(SC)c(=O)cc1[C@@H](NCc1ccc(F)cc1)CC2
< 0.0075 µM: [13]
inactive: [2] 1.69 µM | [17] 2.54 µM | [25] 12.3 µM | [29] 9.1 µM | [40] 8.77 µM | [41] 12.7 µM | [51] 11.6 µM
active: [1] < 0.0075 µM | [3] < 0.0075 µM | [4] < 0.0075 µM | [5] < 0.0075 µM | [6] < 0.0075 µM | [7] < 0.0075 µM | [8] < 0.0075 µM | [9] < 0.0075 µM | [10] < 0.0075 µM | [58] < 0.0075 µM | [11] < 0.0075 µM | [12] 0.0117 µM | [14] < 0.0075 µM | [15] 0.1 µM | [16] < 0.0075 µM | [18] 1.03 µM | [19] < 0.0075 µM | [20] < 0.0075 µM | [21] < 0.0075 µM | [22] < 0.0075 µM | [23] < 0.0075 µM | [24] < 0.0075 µM | [26] < 0.0075 µM | [27] < 0.0075 µM | [28] < 0.0075 µM | [30] < 0.0075 µM | [31] < 0.0075 µM | [32] < 0.0075 µM | [33] < 0.0075 µM | [34] < 0.0075 µM | [35] < 0.0075 µM | [36] 0.0693 µM | [37] < 0.0075 µM | [38] < 0.0075 µM | [39] < 0.0075 µM | [42] < 0.0075 µM | [43] < 0.0075 µM | [44] < 0.0075 µM | [45] < 0.0075 µM | [46] < 0.0075 µM | [47] < 0.0075 µM | [48] < 0.0075 µM | [49] < 0.0075 µM | [50] < 0.0075 µM | [52] < 0.0075 µM | [53] < 0.0075 µM | [55] < 0.0075 µM | [56] < 0.0075 µM | [57] < 0.0075 µM
